In patent US20240287138A1, “CYCLIC PEPTIDES FOR INHIBITING TNF RECEPTOR 1 ACTIVITY” (Merck Sharp & Dohme LLC, priority 2023, published 2024):
Read-outs that look alike come from different tables or passages of the source. Numbered stars: 1 amine (or outer) side, 2 acyl side, 3 side chain; on linkers, the order of the positions; unused ones are H or OH. Bridge positions count the residues as written; N and C are the ends. Square brackets hold non-standard residues; d marks the D form. Peptide text beside a SMILES is read from it. Trp(βS-Me,7-OMe) = COc1cccc2c([C@H](C)[C@H](N)C(=O)O)c[nH]c12; Ala(indazol-1-yl) = N[C@@H](Cn1ncc2ccccc21)C(=O)O; Trp(7-Cl) = N[C@@H](Cc1c[nH]c2c(Cl)cccc12)C(=O)O; X11 = O=C(O)C[C@@H]1C[C@H](C(=O)[*:2])N([*:1])C1; Phe(4-CONH2) = NC(=O)c1ccc(C[C@H](N)C(=O)O)cc1; Phe(4-COOH) = N[C@@H](Cc1ccc(C(=O)O)cc1)C(=O)O; Trp(7-aza) = N[C@@H](Cc1c[nH]c2ncccc12)C(=O)O; Phe(4-CH2NH2) = NCc1ccc(C[C@H](N)C(=O)O)cc1; Trp(1-Me) = Cn1cc(C[C@H](N)C(=O)O)c2ccccc21; Pip(5R-OH) = O=C(O)[C@@H]1CC[C@@H](O)CN1; X1 = O=C([C@@H]1CC[C@H](N[*:1])C1)[*:2]; NHCH2CH2SCH2CO = O=C(CSCCN[*:1])[*:2]; hPhe = N[C@@H](CCc1ccccc1)C(=O)O; 4Pal = N[C@@H](Cc1ccncc1)C(=O)O; NMeE = CN[C@@H](CCC(=O)O)C(=O)O; hLys = NCCCCC[C@H](N)C(=O)O; αMeS = C[C@](N)(CO)C(=O)O; NMeA = CN[C@@H](C)C(=O)O; Nle = CCCC[C@H](N)C(=O)O; Sar = CNCC(=O)O

Tests used:
[1] = target: T1, human TNFR1 extracellular domain (ECD) protein (Homo sapiens, UniProt P19438); assay: SPR binding affinity to captured human TNFR1 ECD
T1 construct: HRV 3C protease cleavage site (C); 6His (C, cleaved yes); made in house; host or cells: Sf21 insect cells (baculovirus), secreted
T1 sequence (P19438 30-211): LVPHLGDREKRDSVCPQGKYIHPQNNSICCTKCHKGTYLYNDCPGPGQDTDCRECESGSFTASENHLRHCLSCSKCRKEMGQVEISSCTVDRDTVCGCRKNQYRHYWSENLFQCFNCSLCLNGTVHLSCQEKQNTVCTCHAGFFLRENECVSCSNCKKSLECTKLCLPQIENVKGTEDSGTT
Procedure, shortened: (§1)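 Biotinylated human TNFR1 or TNFR2 ECD (C-terminal Avi-tag, Sf21-expressed) captured on a regenerable streptavidin chip; peptide analytes flowed in 10 mM HEPES pH 7.4, 150 mM NaCl, 3 mM EDTA, 0.05% P20, 2% DMSO. kon and koff measured; affinity calculated from the rate constants.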

[2] = target: T2, human TNFR2 ECD protein (Homo sapiens, UniProt P20333); assay: SPR off-target binding (selectivity) to human TNFR2 ECD
T2 construct: HRV 3C protease cleavage site (C); 6His (C, cleaved yes); made in house; host or cells: Sf21 insect cells (baculovirus), secreted
T2 sequence (P20333 23-257): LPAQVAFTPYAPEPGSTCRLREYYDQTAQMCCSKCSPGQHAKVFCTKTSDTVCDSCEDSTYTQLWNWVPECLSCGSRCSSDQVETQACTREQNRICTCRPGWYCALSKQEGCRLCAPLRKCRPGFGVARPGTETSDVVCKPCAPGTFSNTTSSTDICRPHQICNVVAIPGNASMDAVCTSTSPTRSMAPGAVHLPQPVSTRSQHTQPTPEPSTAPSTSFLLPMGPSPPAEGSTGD
Procedure, shortened: as §1

[3] = target: T3, TNFα-induced NF-κB signal transduction pathway (TNFR1 signaling) in THP-1 cells (Homo sapiens, UniProt P19438); assay: THP-1 Lucia NF-κB reporter cell assay, inhibition of TNFα-induced NF-κB signaling; format: cell-based; details: THP-1 NF-κB Lucia reporter cells, 10 ng/mL TNFα, 16-18 h, secreted luciferase; read-out: THP-1 IC50
T3 sequence (P19438 30-455): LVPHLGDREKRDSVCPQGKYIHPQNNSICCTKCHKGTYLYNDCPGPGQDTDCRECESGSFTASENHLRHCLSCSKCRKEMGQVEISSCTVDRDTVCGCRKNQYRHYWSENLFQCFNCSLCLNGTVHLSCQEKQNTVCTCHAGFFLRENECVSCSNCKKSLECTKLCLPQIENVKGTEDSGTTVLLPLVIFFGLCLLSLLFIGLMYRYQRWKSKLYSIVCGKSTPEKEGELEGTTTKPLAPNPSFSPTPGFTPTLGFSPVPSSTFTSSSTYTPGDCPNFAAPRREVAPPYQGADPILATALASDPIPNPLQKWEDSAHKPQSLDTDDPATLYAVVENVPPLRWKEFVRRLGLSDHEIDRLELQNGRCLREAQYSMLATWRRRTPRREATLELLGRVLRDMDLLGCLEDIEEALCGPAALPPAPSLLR
Procedure, shortened: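 THP-1 Lucia NF-κB cells, 20k/well, no selection antibiotics; peptide pre-inc 1 h 37 °C; + recombinant human TNFα 10 ng/mL final; o.n.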

[4] = target: T4, human soluble TNFR1 (sTNFR1) (Homo sapiens, UniProt P19438); assay: Human sTNFR1-peptide displacement assay (LanthaScreen Eu TR-FRET binding assay)
T4 construct: made in house; host or cells: Sf21 (baculovirus)
T4 sequence (P19438 with tags, fused parts or gaps): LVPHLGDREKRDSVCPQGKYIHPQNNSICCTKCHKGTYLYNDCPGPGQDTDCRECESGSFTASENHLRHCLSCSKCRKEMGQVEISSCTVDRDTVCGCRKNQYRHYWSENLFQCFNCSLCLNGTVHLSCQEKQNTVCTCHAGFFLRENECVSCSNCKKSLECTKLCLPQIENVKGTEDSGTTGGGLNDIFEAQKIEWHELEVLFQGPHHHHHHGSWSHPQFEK
Procedure, shortened: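 Readout is the 665/615 nm TR-FRET ratio (Eu anti-His donor, streptavidin-Alexa647 acceptor), normalized to DMSO and saturating displacer, fit by Morrison-based five-parameter logistic for Kd^app. His-tagged sTNFR1 (1-211) prebound to 100 nM biotinylated peptide SEQ ID NO.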

| Structure (SMILES) | Kd [1] | Kd [2] | IC50 [3] | IC50 [4] | Kd [4] | Kd ([1]; biotinylated human TNFR1 ECD on streptavidin chip, from kon and koff, read-out: SPR hTNFR1 KD) | Kd ([2]; biotinylated human TNFR2 ECD on streptavidin chip, read-out: SPR hTNFR2 KD) |
| --- | --- | --- | --- | --- | --- | --- | --- |
| COc1cccc2c([C@H](C)[C@@H]3NC(=O)CN(C)C(=O)[C@H](Cc4ccc(O)cc4)NC(=O)[C@H](Cc4ccc(C(=O)O)cc4)NC(=O)[C@](C)(CO)NC(=O)[C@H](Cc4c[nH]c5c(Cl)cccc45)NC(=O)[C@H](Cc4ccncc4)NC(=O)[C@H](CC(N)=O)NC(=O)[C@H](CCC(=O)O)N(C)C(=O)[C@H](Cc4c[nH]c5ccccc45)NC(=O)[C@@H]4CC[C@@H](O)CN4C(=O)[C@H](Cc4ccncc4)NC(=O)[C@H](CCCCCN)NC(=O)[C@@H]4CC[C@@H](C4)NC3=O)c[nH]c12 [SEQ ID NO. 131] (cyclo([4Pal][Trp(7-Cl)][αMeS][Phe(4-COOH)]Y[Sar][Trp(βS-Me,7-OMe)][X1][hLys][4Pal][Pip(5R-OH)]W[NMeE]N)) | 0.06 nM | > 1000 nM | 0.7 nM | – | – | – | – |
| CCCC[C@@H]1NC(=O)[C@@H]2CC[C@@H](C2)NC(=O)[C@H]([C@@H](C)c2c[nH]c3c(OC)cccc23)NC(=O)CN(C)C(=O)[C@H](Cc2ccc(C(=O)O)cc2)NC(=O)[C@H](Cc2ccc(C(N)=O)cc2)NC(=O)[C@](C)(CO)NC(=O)[C@H](Cc2c[nH]c3c(Cl)cccc23)NC(=O)[C@H](Cc2ccc(C(=O)O)cc2)NC(=O)[C@H](CC(N)=O)NC(=O)[C@H]2C[C@@H](CC(=O)O)CN2C(=O)[C@H](Cc2c[nH]c3ccccc23)NC(=O)[C@@H]2CC[C@@H](O)CN2C(=O)[C@H](Cc2ccncc2)NC1=O [SEQ ID NO. 132] (cyclo([4Pal][Pip(5R-OH)]W[X11]N[Phe(4-COOH)][Trp(7-Cl)][αMeS][Phe(4-CONH2)][Phe(4-COOH)][Sar][Trp(βS-Me,7-OMe)][X1][Nle])) | 0.08 nM | > 1000 nM | 0.7 nM | – | – | – | – |
| CCCC[C@@H]1NC(=O)CSC[C@@H](C(N)=O)NC(=O)[C@H]([C@@H](C)c2c[nH]c3c(OC)cccc23)NC(=O)CN(C)C(=O)[C@H](Cc2ccc(O)cc2)NC(=O)[C@H](Cc2ccc(C(N)=O)cc2)NC(=O)[C@](C)(CO)NC(=O)[C@H](Cc2c[nH]c3c(Cl)cccc23)NC(=O)[C@H](Cc2ccncc2)NC(=O)[C@H](CC(N)=O)NC(=O)[C@H](CCC(=O)O)N(C)C(=O)[C@H](Cc2cn(C)c3ccccc23)NC(=O)[C@@H]2CC[C@@H](O)CN2C(=O)[C@H](Cc2ccncc2)NC1=O [SEQ ID NO. 151] ({CH2CO}-[Nle][4Pal][Pip(5R-OH)][Trp(1-Me)][NMeE]N[4Pal][Trp(7-Cl)][αMeS][Phe(4-CONH2)]Y[Sar][Trp(βS-Me,7-OMe)]C-NH2; thioether N-14) | 0.04 nM | > 1000 nM | – | 0.29 nM | 0.11 nM | – | – |
| CCCC[C@@H]1NC(=O)CSCCNC(=O)[C@H]([C@@H](C)c2c[nH]c3c(OC)cccc23)NC(=O)CN(C)C(=O)[C@H](Cc2ccc(O)cc2)NC(=O)[C@H](Cc2ccc(C(=O)O)cc2)NC(=O)[C@](C)(CO)NC(=O)[C@H](Cc2c[nH]c3c(Cl)cccc23)NC(=O)[C@H](Cc2ccncc2)NC(=O)[C@H](CC(N)=O)NC(=O)[C@H](CCC(=O)O)N(C)C(=O)[C@H](Cc2c[nH]c3ncccc23)NC(=O)[C@H](CO)NC(=O)[C@H](Cc2ccc(CN)cc2)NC1=O [SEQ ID NO. 258] (cyclo([4Pal][Trp(7-Cl)][αMeS][Phe(4-COOH)]Y[Sar][Trp(βS-Me,7-OMe)][NHCH2CH2SCH2CO][Nle][Phe(4-CH2NH2)]S[Trp(7-aza)][NMeE]N)) | 0.2 nM | > 1000 nM | 11.5 nM | – | – | – | – |
| C[C@H]1C(=O)N[C@@H](CC(N)=O)C(=O)N[C@@H](Cc2ccncc2)C(=O)N[C@@H](Cc2c[nH]c3ccccc23)C(=O)N[C@@](C)(CO)C(=O)N[C@@H](Cc2ccc(C(=O)O)cc2)C(=O)N[C@@H](Cc2ccc(O)cc2)C(=O)N(C)CC(=O)N[C@@H](Cc2c[nH]c3ccccc23)C(=O)N[C@H](C(N)=O)CSCC(=O)N[C@@H](CCc2ccccc2)C(=O)N[C@@H](Cc2ccc(O)cc2)C(=O)N[C@@H](CO)C(=O)N[C@@H](Cn2ncc3ccccc32)C(=O)N1C [SEQ ID NO. 265] ({CH2CO}-[hPhe]YS[Ala(indazol-1-yl)][NMeA]N[4Pal]W[αMeS][Phe(4-COOH)]Y[Sar]WC-NH2; thioether N-14) | – | – | 4.9 nM | – | – | 1 nM | > 1000 nM |
